“Also recorded” adds a separate entry of the source. Where a name gives a salt, the structure may show the parent alone.
Assays:
[1] = system: central neuropathic pain following traumatic spinal cord injury; assay: Crossover trial: quality of life, Duke Health Profile; format: in vivo, human; conditions: for Pain domain, compared to placebo: combination p=0.002, dextromethorphan p=0.001, gabapentin p=0.03
Method: (§1) Secondary endpoints were assessed at a clinic visit on the final day of each treatment period, and included: 1) Global Pain Intensity (6-item categorical scale); 2) Global Pain Relief (6-item categorical scale); 3) pain intensity (Gracely Scale) of individual pain descriptors (burning pain; aching pain; tingling pain; cold pain; brief lancinating pain; deep stabbing pain; constricting pain; and touch-evoked pain (allodynia)); 4) areas of evoked pain: a) allodynia and b) pinprick-evoked hyperalgesia; 5) quality of life, assessed using the Duke Health Profile (Parkerson, G R, et al. Medical Care 28:1056-1069(1990)). 6) Patient Satisfaction (5-item categorical scale); 7) patients' assessment of best treatment. Allodynia was mapped by stroking the skin with the distal 5 mm of the corner of a 2×2 gauze sponge at standard pressure, at a rate of 1 cm/sec. Pinprick-evoked hyperalgesia was mapped using a standard safety pin that was pressed against the skin until dimpling was visible. Ambient temperature was maintained at 24 degrees centigrade. All mapping took place within a 30-minute period. The delineated areas of evoked pain were recorded using photographs of 4 views (anterior/posterior/right lateral/left lateral), which were scanned, and the areas of each of the 4 views were summed to determine the composite area.

neuropathic pain = conditions: cited from earlier work
[2] = Crossover trial: titration to maximally tolerated dose (MTD); format: in vivo, human; conditions: drug alone; for mean dose during Week 5: after 4 weeks of titration to MTD; for maximum daily dose administered: titration to MTD
Source text: (§2) All patients were followed as outpatients. Patients were randomly assigned to a sequence of the 4 treatments. Each of the 4 treatment periods consisted of 5 weeks. Each treatment period was separated by a 1-week washout period, with the requirement that pain return to baseline level. Dextromethorphan (Endo Inc., Neptune, N.J.; and its externally identical placebo) and gabapentin (Neurontin, Pfizer, Inc., Ann Arbor, Mich.; and its externally identical placebo) were dispensed using a double-dummy design; thus, the dextromethorphan:gabapentin dose-ratio was maintained at 1:5. Subjects started at 120 mg/day of dextromethorphan vs. placebo and 600 mg/day of gabapentin vs. placebo, and titrated according to a fixed schedule until they reached the ceiling doses equivalent to 600 mg/day of dextromethorphan or 3000 mg/day of gabapentin or their maximally tolerated dose (the dose just causing side effects, MTD). The titration regimen and the number of capsules per dose for each treatment were the same in each treatment group, in order to maintain double blinded conditions.

[3] = system: central neuropathic pain following traumatic spinal cord injury; assay: Crossover trial: evoked pain (touch-evoked allodynia, pinprick-evoked hyperalgesia); format: in vivo, human; conditions: for intensity of touch-evoked allodynia, compared to placebo: 14 subjects with allodynia, dextromethorphan p=0.03, gabapentin p=0.01, combination p=0.001; for mean area of allodynia after treatment / mean area of allodynia, reduction from baseline: baseline 362±496 cm^2; for mean area of pinprick hyperalgesia after treatment / mean area of pinprick hyperalgesia, reduction from baseline: baseline 371±523 cm^2; for areas of pinprick hyperalgesia, difference: combination p=0.03, dextromethorphan p=0.02, gabapentin p=0.03
Method: as §1

[4] = system: central neuropathic pain following traumatic spinal cord injury; assay: Randomized, double-blind, double-dummy, 2x2 factorial crossover trial: spontaneous pain, pain relief, patient satisfaction; format: in vivo, human; conditions: for patients choosing treatment as best pain relief / patients choosing treatment as best, balance between analgesia and side effects: at completion of the study, p=0.04; for SCI (spontaneous) pain compared to placebo: chronic oral administration; for overall patient satisfaction at the end of each treatment period, compared to placebo: dextromethorphan p<0.001, gabapentin p<0.01, combination p<0.001; for patients with at least moderate or better pain relief: of 18 patients, end of 5-week treatment
Method: Central neuropathic pain following traumatic spinal cord injury (SCI) may be severe and refractory to standard analgesics. Pharmacologic agents that target distinct pathophysiological pain mechanisms theoretically could provide pain relief for these patients. The analgesic efficacy of dextromethorphan and gabapentin in combination, dextromethorphan alone, gabapentin alone, and placebo, in patients with pain following SCI was evaluated in a randomized, double-blind, double-dummy, 2×2 factorial, Latin Square crossover trial, we evaluated the four treatments. Each treatment was titrated over 4 weeks and maintained at the individual's […] until the end of Week 5. Each treatment period was followed by a 1-week washout period or until pain returned to baseline. Primary efficacy measure was mean pain intensity during the 5-week treatment period, measured by the 20-point Gracely pain intensity scale.
Patients with 1) central neuropathic pain secondary to traumatic SCI in persons >18 years of age, 2) moderate pain for at least 50% of the day for at least 3 months, 3) concurrent use of no more than two analgesics at a stable dose (e.g. tricyclic antidepressants, anticonvulsants, nonsteroidal antiinflammatory drugs, or limited use of low-potency short-acting opioids), and 4) 100% compliance in rating their overall pain intensity 5-times daily in a diary for 1 week, were recruited nationwide between July 1997 and April 1999 using written announcements and by physician referrals.
as §2
The primary endpoint was mean spontaneous pain intensity averaged weekly, from the start of study drug until the end of Week 5 for each treatment period and overall for the 5 weeks, assessed in a diary in which pain ratings were recorded 5-times daily, and evaluated with the 20-point Gracely pain scale based on 13 words (“faint” to “extremely intense”) (Gracely R H, et al. Pain 5:5-18(1978)).
as §1, with “Ambient temperature was maintained at 24 degrees centigrade. All mapping took place within a 30-minute period. The delineated areas of evoked pain were recorded using photographs of 4 views (anterior/posterior/right lateral/left lateral), which were scanned, and the areas of each of the 4 views were summed to determine the composite area.” left out

[5] = Crossover trial: adverse effects; format: in vivo, human; conditions: for confusion, proportion of patients / dizziness, proportion of patients / euphoria, proportion of patients / fatigue, proportion of patients / somnolence, proportion of patients / speech difficulty, proportion of patients / urinary incontinence, proportion of patients / urinary tract infection, proportion of patients: human, in vivo, oral, 5 weeks
Method: Presence and intensity (5-item categorical scale) of adverse effects were assessed continuously using an open question.

spinally injured rats = conditions: repeated doses; cited from earlier work
SCI pain [6] = conditions: acute parenteral administration; cited from earlier work
SCI pain [7] = conditions: chronic oral agents; cited from earlier work

## COc1ccc2c(c1)[C@]13CCCC[C@@H]1[C@H](C2)N(C)CC3 [dextromethorphan, dextromethorphan hydrobromide]
[1]; combination p=0.001, dextromethorphan p=0.02
  Physical Health measure, compared to placebo: significantly better than placebo
[1]
  Pain domain, compared to placebo: significantly better than placebo
[1]; combination p=0.01, dextromethorphan p=0.04
  General Health measure, compared to placebo: significantly better than placebo
Neuropathic pain; dextromethorphan alone at 81 mg/day
  analgesic effect in patients with neuropathic pain: inability
Neuropathic pain; human, in vivo
  effect in patients with peripheral neuropathic pain: marginal effect
[2]
  mean dose during Week 5: 416 ± 34 mg/day
  mean daily dose: 416 mg
  maximum daily dose administered: 470 ± 29 mg/day
[3]
  intensity of touch-evoked allodynia, compared to placebo: significantly reduced
  mean area of allodynia after treatment: 183±321 cm^2
  mean area of allodynia, reduction from baseline: 49%
  mean area of pinprick hyperalgesia after treatment: 122±287 cm^2
  mean area of pinprick hyperalgesia, reduction from baseline: 67%
  areas of pinprick hyperalgesia, difference: significant difference
[4]
  patients choosing treatment as best pain relief: 33.3%
  patients choosing treatment as best, balance between analgesia and side effects: 17.5%
  overall patient satisfaction at the end of each treatment period, compared to placebo: significantly better
  patients with at least moderate or better pain relief: 50%
[4]; hydrobromide
  SCI (spontaneous) pain compared to placebo: significant reduction; also recorded: superior to placebo
[4]; combination p=0.005, dextromethorphan p=0.001
  intensity of burning pain, compared to placebo: significant relief
[4]; combination p=0.03, dextromethorphan p=0.003
  brief paroxysms of lancinating pain, compared to placebo: significant relief
[5]
  confusion, proportion of patients: 33%
  dizziness, proportion of patients: 67%
  euphoria, proportion of patients: 24%
  fatigue, proportion of patients: 52%
  somnolence, proportion of patients: 62%
  speech difficulty, proportion of patients: 10%
  urinary incontinence, proportion of patients: 5%
  urinary tract infection, proportion of patients: 38%
[5]; p<0.002
  proportion of patients with cognitive side effects, compared to either placebo or gabapentin: significantly larger proportion
[5]; p=0.01
  proportion of patients with other side effects, compared to placebo: significantly larger proportion

## NCC1(CC(=O)O)CCCCC1 [gabapentin]
[1]
  Pain domain, compared to placebo: significantly better than placebo
Spinally injured rats
  chronic hypersensitivity: alleviated chronic hypersensitivity
[2]
  mean dose during Week 5: 2657 ± 155 mg/day
  mean daily dose: 2657 mg
  maximum daily dose administered: 2717 ± 148 mg/day
[3]
  intensity of touch-evoked allodynia, compared to placebo: significantly reduced
  mean area of allodynia after treatment: 106±231 cm^2
  mean area of allodynia, reduction from baseline: 71%
  mean area of pinprick hyperalgesia after treatment: 152±332 cm^2
  mean area of pinprick hyperalgesia, reduction from baseline: 59%
  areas of pinprick hyperalgesia, difference: significant difference
[3]; combination p=0.05, gabapentin p=0.02
  area of allodynia, compared to placebo: significant difference from placebo
[4]
  patients choosing treatment as best pain relief: 27.8%
  patients choosing treatment as best, balance between analgesia and side effects: 23.5%
  SCI (spontaneous) pain compared to placebo: significant reduction; also recorded: superior to placebo
  overall patient satisfaction at the end of each treatment period, compared to placebo: significantly better
  patients with at least moderate or better pain relief: 39%
[5]
  confusion, proportion of patients: 22%
  dizziness, proportion of patients: 22%
  euphoria, proportion of patients: 6%
  fatigue, proportion of patients: 33%
  somnolence, proportion of patients: 33%
  speech difficulty, proportion of patients: 0%
  urinary incontinence, proportion of patients: 11%
  urinary tract infection, proportion of patients: 22%

## CNC1(c2ccccc2Cl)CCCCC1=O (centres unmarked) [ketamine]
SCI pain [6]
  spontaneous and evoked SCI pain: reduced both spontaneous and evoked SCI pain

## Cc1cccc(C)c1OCC(C)N (centres unmarked) [mexiletine]
SCI pain [7]
  results of randomized controlled trials in SCI pain: negative

## O=c1n(CCCN2CCN(c3cccc(Cl)c3)CC2)nc2ccccn12 [trazodone]
SCI pain [7]
  results of randomized controlled trials in SCI pain: negative
